Data reported in US20240400579A1, “SPIROCYCLIC MODULATORS OF CHOLESTEROL BIOSYNTHESIS AND THEIR USE FOR PROMOTING REMYELINATION” (GENENTECH, INC., priority 2021, published 2024).
Read-outs that look alike come from different tables or passages of the source.

Tests used:
EpiSC-derived OPCs = test: In vitro phenotypic screening of OPCs, MBP high-content imaging; assay type: cell-based, mouse; conditions: percentage of MBP+ oligodendrocytes, 3 days, 0.5 nM to 1000 nM, read-out: mOPC EC50
Description: (§1) To assess effects of treatments on OPCs, all treatments were assayed in two or more independent platings of epiblast stem cell-derived OPCs (EpiSC). EpiSC-derived OPCs were obtained using in vitro differentiation protocols and culture conditions described previously (Najm et al, 2011, Nature Methods). OPCs were expanded and frozen down in aliquots. OPCs were thawed into growth conditions for at least one passage before use in further assays.
EpiSC-derived OPCs were grown and expanded in poly-L-ornithine (PO) and laminin-coated flasks in N2B27 media (DMEM/F12 (Gibco), N2-MAX (R&D Systems), B-27 (ThermoFisher), and GlutaMax (Gibco)) supplemented with FGF2 ([…], R&D systems, 233-FB-025) and PDGF-AA ([…], R&D systems, 233-AA-050) before harvesting for experiments. The cells were seeded onto poly-L-ornithine or poly-D-lysine coated CellCarrier Ultra plates (PerkinElmer) coated with laminin (Sigma, L2020) at a density of 150,000/cm^2 in N2B27 media without growth factors. For dose-response testing, a 1000× compound stock in dimethyl sulphoxide (DMSO) was added to assay plates, resulting in 8-point dose curves with final concentrations between 1000 nM and 0.5 nM. Positive controls and DMSO vehicle controls were included in each assay plate. Cells were incubated under standard conditions (37° C., 5% CO2) for 3 days and fixed with 4% paraformaldehyde (PFA) in phosphate buffered saline (PBS) for 20 min. Fixed plates were washed with PBS, permeabilized with 0.1% Triton X-100, and blocked with 10% donkey serum (v/v) in PBS for 40 min. Then, cells were labelled with MBP antibodies (Abcam, ab7349; 1:200) for 2 h at room temperature, washed with PBS, and stained with Alexa Fluor conjugated secondary antibodies (1:500) for 45 min. Nuclei were visualized by DAPI staining (Sigma; 1 μg/ml), followed by further PBS washes.
Cells and cell culture plates were imaged on the Operetta High Content Imaging and Analysis system (PerkinElmer). Analysis (PerkinElmer Harmony and Columbus software) began by identifying intact nuclei stained by DAPI. The peri-nuclear region of each cell was then cross-referenced with the mature myelin protein (MBP) stain to identify oligodendrocyte nuclei, and from this the percentage of oligodendrocytes was calculated. EC50 values were calculated using The Levenberg-Marquardt algorithm to fit a Hill equation to dose-response data (0.5 nM to 1000 nM).

[1] = biological target: human emopamil binding protein and human 7-dehydrocholesterol reductase co-expressing cell membrane (Homo sapiens (Human), UniProt Q15125); test: hEBP-DHCR7 radioligand filtration binding assay with [3H]-Compound 118A*; conditions: radioligand [3H]-Compound 118A*; HEK293 membrane co-expressing hEBP and DHCR7
Description: Membrane Preparation: human emopamil binding protein and human 7-dehydrocholesterol reductase co-expressing cells were generated by transient transfecting host human embryonic kidney (HEK) 293 cells with 2 DNA constructs containing each protein's coding sequence. Cells were suspension cultured at 37° C. with 5% CO2 in […] 293 Expression Medium (Thermofisher). Whole cell membrane was prepared by harvesting the cell pellet, adding cold membrane buffer (50 mM Tris, pH7.5, 1× Roche COMPLETE EDTA-free protease inhibitor cocktail) 10 times volume of the cell pellets weight, lysing cell pellet on ice by using Dounce homogenizer, spinning at 200 g 4° C. for 15 min, collecting supernatant and spinning again at 25000 g 4° C. for 50 min, transferring pellet to Dounce homogenizer, re-suspending pellet by homogenizing in membrane buffer on ice to reach ˜25 mg/mL, then keeping whole cell membrane aliquots at −80° C.
Compounds were prepared in a 96-well U bottom plate using an Echo550 machine and 10 mM compound DMSO stock solution, followed by an 8-dose 5-fold serial dilutions protocol with final testing compound concentration ranging from 0.06 to 5000 nM, with DMSO back fill to 100 nL/well and n=2. […] The UniFilter-96 GF/B plates were pre-treated by adding 50 μl/well of 0.3% (v/v) PEI to UniFilter-96 GF/B plates. The plates were sealed and incubated at 4° C. for 3 hrs. Then, the plates were washed with ice-cold assay buffer 3 times. The radioligand binding assay was prepared by adding assay buffer diluted hEBP-DHCR7 membrane at 66.7 μg/ml x 150 μl/well into the 96-well compound plate to reach 10 μg membrane per well. Then, the assay buffer diluted [3H]-Compound 118A* was added at 25 nM×50 μl/well. Following this, the plate was centrifuged at 1000 rpm for 30 secs. The plate was then sealed and agitated at 600 rpm at 22° C. for 5 min, and then incubated at 22° C. for 3 hrs. The incubation was stopped by transferring the binding solution to the pre-treated UniFilter-96 GF/B plate, vacuum filtrated, and then washed four times with ice-cold assay buffer. Following this, the plates were dried at 37° C. for 45 min. The plates were then sealed at the bottom. 40 μl/well of scintillation cocktail was added to the plates. A MicroBeta2 microplate counter was then used to read the plate and analyze the data. For reference and test compounds, the results are expressed as % Inhibition, using the normalization equation: N=100-100×(U−C2)/(C1−C2), where U is the unknown value, C1 is the average of high controls, and C2 is the average value of low controls. The IC50 was determined by fitting percentage of inhibition as a function of compound concentrations with Hill equation using XLfit. Results are expressed as hEBP-DHCR7 Ki (uM) in Table 4. Ki was calculated as described above.

[2] = system: zymostenol accumulation in EpiSC-derived OPCs (EBP); test: GC/MS-based sterol profiling, zymostenol accumulation; assay type: cell-based, mouse; conditions: 8 doses from 0.15 nM to 333 nM, read-out: mZymo GCMS EC50
Description: as §1
Sterols were monitored using a modified Folch wash protocol (Hubler et al, 2018, Nature). EpiSC-derived OPCs were plated at 100,000 cells per well in PO— and laminin-coated 96-well plates in N2B27 media without growth factors. After 24 hours, cells were rinsed with saline and plates were frozen. Cholesterol-d7 standard was then added to each well before drying under nitrogen stream and derivatization with 55 μl of bis(trimethylsilyl) trifluoroacetamide. After derivatization, 2 μl were analyzed by gas chromatography/mass spectrometry using an Agilent 5973 Network Mass Selective Detector equipped with a 6890 gas chromatograph system and a HP-5MS capillary column (30 m x 0.25 mm×[…]). Samples were analyzed in full scan mode using electron impact ionization; ion fragment peaks were integrated to calculate sterol abundance, and quantitation was relative to cholesterol-d7. The following ion fragments were used to quantitate each metabolite: cholesterol-d7 (465), FF-Mas (482), cholesterol (368), zymostenol (458), zymosterol (456), Desmosterol (456, 343), 7-dehydrocholesterol (456, 325), lanosterol (393), lathosterol (458), 14-dehydrozymostenol (456, 351). […] All standards were obtained from Avanti Polar Lipids unless otherwise indicated. Calibration curves were generated by injecting varying concentrations of sterol standards and maintaining a fixed amount of cholesterol-D7. For normalized zymostenol accumulation results, the total amount of zymostenol measured after drug treatment was divided by the total amount of zymostenol accumulated after 24 hr treatment with 100 nM positive control reference.

Sequence of human emopamil binding protein and human 7-dehydrocholesterol reductase co-expressing cell membrane (Q15125 whole entry): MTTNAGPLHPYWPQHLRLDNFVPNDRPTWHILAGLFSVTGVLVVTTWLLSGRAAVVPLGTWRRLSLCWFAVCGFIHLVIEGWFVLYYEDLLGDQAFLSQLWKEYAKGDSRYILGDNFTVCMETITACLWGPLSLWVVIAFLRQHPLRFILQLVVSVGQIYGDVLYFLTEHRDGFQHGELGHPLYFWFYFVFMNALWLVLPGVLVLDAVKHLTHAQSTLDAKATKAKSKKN

SMILES | EC50 (EpiSC-derived OPCs) [nM] | Ki [1] [nM] | EC50 ([2]; 24 hours) [nM] | EC50 (EpiSC-derived OPCs; Mus musculus, 72 h) [nM] | EC50 ([2]; Mus musculus, 24 h) [nM]
C[C@H](Cc1ccc([C@H]2CC[C@](C)(O)CC2)c(Cl)c1)CN1CCC2(C1)CS(=O)(=O)C2 (mixture of isomers) [Compound 123A, 6-((R)-3-(3-Chloro-4-((1r,4R)-4-hydroxy-4-methylcyclohexyl)phenyl)-2-methylpropyl)-2-thia-6-azaspiro[3.4]octane 2,2-dioxide, 6-((S)-3-(3-chloro-4-((1r,4S)-4-hydroxy-4-methylcyclohexyl)phenyl)-2-methylpropyl)-2-thia-6-azaspiro[3.4]octane 2,2-dioxide] | 54 | 11.9 | 14 |  | 
C[C@H](Cc1ccc(C2(C)CC2)cc1)CN1CCC2(C1)CS(=O)(=O)C2 (single isomer, unassigned) [111B*] |  |  |  | 1.5 | 1.4
C[C@@H](Cc1ccc(C2(C)CC2)cc1)CN1CCC2(C1)CS(=O)(=O)C2 (single isomer, unassigned) [111C*] |  |  |  | 6.1 | 7.1
C[C@@H](Cc1ccc(C2CCC(F)(F)CC2)c(Cl)c1)CN1CCC2(C1)CS(=O)(=O)C2 (single isomer, unassigned) [117A*] |  | 9.43 |  | 1.5 | 
C[C@H](Cc1ccc(C(F)(F)F)nc1)CN1CC2(CCS(=O)(=O)CC2)C1 (single isomer, unassigned) [234A*] |  | 250 |  |  | 49
C[C@@H](CN1CCC2(CC1)CS(=O)(=O)C2)Oc1ccc(C(F)(F)F)nc1 (single isomer, unassigned) [Example 207A*] |  | 33.6 |  |  | 31
O=S1(=O)CC2(CCN(CCOc3ccnc([C@H]4CC[C@@H](C(F)(F)F)CC4)c3)CC2)C1 [245A*, 7-(2-((2-((cis)-4-(Trifluoromethyl)cyclohexyl)pyridin-4-yl)oxy)ethyl)-2-thia-7-azaspiro[3.5]nonane 2,2-dioxide] |  | 16 |  |  | 10.5
O=S1(=O)CC2(CCN(CCOc3ccnc([C@H]4CC[C@H](C(F)(F)F)CC4)c3)CC2)C1 [245B*, 7-(2-((2-((trans)-4-(trifluoromethyl)cyclohexyl)pyridin-4-yl)oxy)ethyl)-2-thia-7-azaspiro[3.5]nonane 2,2-dioxide] |  | 19.7 |  |  | 8.37
O=S1(=O)CC2(CCN(CCOc3ccc([C@H]4CC[C@@H](C(F)(F)F)CC4)nc3)CC2)C1 [247B*, 7-(2-((6-((cis)-4-(trifluoromethyl)cyclohexyl)pyridin-3-yl)oxy)ethyl)-2-thia-7-azaspiro[3.5]nonane 2,2-dioxide] |  | 8.97 |  |  | 68.6
CC(Cc1ccc(C(F)(F)F)cc1)CN1CCC2(C1)CS(=O)(=O)C2 (stereo not shown) [Compound 104, 6-(2-Methyl-3-(4-(trifluoromethyl)phenyl)propyl)-2-thia-6-azaspiro[3.4]octane 2,2-dioxide] |  |  |  | 1.7 | 0.48
O=S1(=O)CC2(CCN(CCCc3ccc(C(F)(F)F)cc3)C2)C1 [Compound 113, 6-(3-(4-(Trifluoromethyl)phenyl)propyl)-2-thia-6-azaspiro[3.4]octane-2,2-dioxide] |  |  |  | 18 | 0.41
CC(C)(CN1CCC2(CC1)CS(=O)(=O)C2)Oc1ccc(F)c(C(F)(F)F)c1 [Compound 220, 7-(2-(4-Fluoro-3-(trifluoromethyl)phenoxy)-2-methylpropyl)-2-thia-7-azaspiro[3.5]nonane 2,2-dioxide] |  | 11.9 |  |  | 0.97
O=S1(=O)CC2(CCN(CCOc3ccc(-c4ccc(C(F)(F)F)nc4)nc3)CC2)C1 [Compound 241, 7-[2-[[6-[6-(Trifluoromethyl)-3-pyridyl]-3-pyridyl]oxy]ethyl]-26-thia-7-azaspiro[3.5]nonane 2,2-dioxide] |  | 69 |  |  | 14.9
O=S1(=O)CC2(CCN(CCOc3cnc(C(F)(F)F)c(Cl)c3)CC2)C1 [Compound 242, 7-[2-[[5-Chloro-6-(trifluoromethyl)-3-pyridyl]oxy]ethyl]-26-thia-7-azaspiro[3.5]nonane 2,2-dioxide] |  |  |  | 16.3 | 4.51
Cc1nc(C(F)(F)F)ccc1OCCN1CCC2(CC1)CS(=O)(=O)C2 [Compound 243, 7-[2-[[2-Methyl-6-(trifluoromethyl)-3-pyridyl]oxy]ethyl]-26-thia-7-azaspiro[3.5]nonane 2,2-dioxide] |  | 53 |  |  | 6.61
O=S1(=O)CC2(CCN(CCOc3cnc(C4CCCCC4)c(C(F)(F)F)c3)CC2)C1 [Compound 244, 7-(2-((6-Cyclohexyl-5-(trifluoromethyl)pyridin-3-yl)oxy)ethyl)-2-thia-7-azaspiro[3.5]nonane 2,2-dioxide] |  | 10.7 |  |  | 23.5
CC(C)(Cc1ccc(C(F)(F)F)cc1)CN1CCC2(C1)CS(=O)(=O)C2 [Example 125, 6-(2,2-Dimethyl-3-(4-(trifluoromethyl)phenyl)propyl)-2-thia-6-azaspiro[3.4]octane-2,2-dioxide] |  |  |  | 0.72 | 0.62
CC(C)(CN1CCC2(CC1)CS(=O)(=O)C2)Oc1ccc(F)c(F)c1 [Example 156, 7-(2-(3,4-Difluorophenoxy)-2-methylpropyl)-2-thia-7-azaspiro[3.5]nonane 2,2-dioxide] |  | 13.9 |  |  | 1.5
